Key:
Format in all cases: cell-based
LNCaP cells [1] = test: RT-qPCR expression of bimodal genes in LNCaP cells with and without R1881; settings: R1881 1 nM, relative to untreated cells, period of 36 hrs
Experimental: (§1) LNCaP and PC3 cells routinely grown in the laboratory were transfected with SMARTpool siRNAs specifically targeting TGFBR2 and GSK3B, respectively, according to the manufacturer protocol (ThermoFisher). Unspecific scrambled siRNA was used as a negative control. Total RNA were prepared from transfected and control cells or from cells treated with R1881 (1 nM), a synthetic androgen agonist. Reverse transcription was performed using the SuperScript III kit (Invitrogen) on a Veriti 96-well Thermocycler (Applied Biosystems). Relative expression values of genes were shown as the average fold changes (2−ΔΔCt) from three individual experiments using UBB as an internal control and the untreated expression designated as 1.

PC3 cells [2] = test: RT-qPCR expression of bimodal genes in PC3 cells with and without R1881; settings: R1881 1 nM, androgen-independent PC3 cells
Experimental: as §1

LNCaP cells [3] = test: Cell proliferation, migration, and invasion assays (IncuCyte ZOOM), LNCaP; settings: R1881 1 nM (low-dose)
Experimental: (§2) Cells were seeded in triplicate wells of a 96-well plate, and every three hours four independent images were taken per well and quantified for confluence percentage using the IncuCyte ZOOM system. To eliminate variations of cell size and seeding densities, relative cell densities at all time points' values were normalized to the initial time point's average confluence.
(§3) Cell monolayers were seeded to optimized confluent levels in a 96-well ImageLock Plate (Essen BioSciences). The 96-well WoundMaker created equal scratches in every well simultaneously for cell migration and invasion analysis (Essen BioSciences). For invasion assays, BD Matrigel™ Basement Membrane Matrix (BD Biosciences) was used for coating the ImageLock plates, creating a thick layer above the scratched monolayer, 0.1 and 4.0 mg/ml respectively. The IncuCyte ZOOM system's scan mode set to scratch wound and wide mode and captured 1 image every 3 hours. Migration and invasion were analyzed using the relative wound density percent (RWD %) metric.

PC3 cells [4] = test: Cell proliferation, migration, and invasion assays (IncuCyte ZOOM), PC3; settings: R1881 1 nM, androgen-independent PC3 cells
Experimental: as §2, §3

Q: What does the source list for `C[C@]1(O)CC[C@H]2[C@@H]3CCC4=CC(=O)CCC4=C3C=C[C@@]21C` [R1881]?
A: expression of CDKN1C (LNCaP cells [1]): further repressed; expression of CXCL6 (LNCaP cells [1]): further repressed; gene expression patterns (PC3 cells [2]): did not alter; cell growth (LNCaP cells [3]): did not cause noticeable changes; invasion (LNCaP cells [3]): did not cause noticeable changes; migration (LNCaP cells [3]): did not cause noticeable changes; cellular phenotypes (PC3 cells [4]): did not alter

— patent US20170076040A1, “SINGLE-CELL ANALYSIS AS A SENSITIVE AND SPECIFIC METHOD FOR EARLY CANCER DETECTION” (THE BOARD OF REGENTS OF THE UNIVERSITY OF TEXAS SYSTEM, priority 2014, published 2017)
